# Test results from US20230079819A1, “COMPOUNDS AND USES THEREOF” (Foghorn Therapeutics Inc., priority 2019, published 2023).
# Columns and labels:
# BRM = biological target: T1, BRM (Homo sapiens, UniProt P51531); assay: ATPase catalytic activity of BRM, ADP-Glo in vitro biochemical assay; conditions: ATPase catalytic activity, 30 nM BRM, 400 μM ATP, read-out: BRM IP50
# T1 construct: made in house; host or cells: High Five insect cells
# BRG-1 = biological target: T2, BRG-1 (Homo sapiens, UniProt P51532); assay: ATPase catalytic activity of BRG-1, ADP-Glo in vitro biochemical assay; conditions: ATPase catalytic activity, 30 nM BRG-1, 400 μM ATP, read-out: BRG1 IP50
# T2 construct: made in house; host or cells: High Five insect cells
# T2 sequence (P51532 whole entry): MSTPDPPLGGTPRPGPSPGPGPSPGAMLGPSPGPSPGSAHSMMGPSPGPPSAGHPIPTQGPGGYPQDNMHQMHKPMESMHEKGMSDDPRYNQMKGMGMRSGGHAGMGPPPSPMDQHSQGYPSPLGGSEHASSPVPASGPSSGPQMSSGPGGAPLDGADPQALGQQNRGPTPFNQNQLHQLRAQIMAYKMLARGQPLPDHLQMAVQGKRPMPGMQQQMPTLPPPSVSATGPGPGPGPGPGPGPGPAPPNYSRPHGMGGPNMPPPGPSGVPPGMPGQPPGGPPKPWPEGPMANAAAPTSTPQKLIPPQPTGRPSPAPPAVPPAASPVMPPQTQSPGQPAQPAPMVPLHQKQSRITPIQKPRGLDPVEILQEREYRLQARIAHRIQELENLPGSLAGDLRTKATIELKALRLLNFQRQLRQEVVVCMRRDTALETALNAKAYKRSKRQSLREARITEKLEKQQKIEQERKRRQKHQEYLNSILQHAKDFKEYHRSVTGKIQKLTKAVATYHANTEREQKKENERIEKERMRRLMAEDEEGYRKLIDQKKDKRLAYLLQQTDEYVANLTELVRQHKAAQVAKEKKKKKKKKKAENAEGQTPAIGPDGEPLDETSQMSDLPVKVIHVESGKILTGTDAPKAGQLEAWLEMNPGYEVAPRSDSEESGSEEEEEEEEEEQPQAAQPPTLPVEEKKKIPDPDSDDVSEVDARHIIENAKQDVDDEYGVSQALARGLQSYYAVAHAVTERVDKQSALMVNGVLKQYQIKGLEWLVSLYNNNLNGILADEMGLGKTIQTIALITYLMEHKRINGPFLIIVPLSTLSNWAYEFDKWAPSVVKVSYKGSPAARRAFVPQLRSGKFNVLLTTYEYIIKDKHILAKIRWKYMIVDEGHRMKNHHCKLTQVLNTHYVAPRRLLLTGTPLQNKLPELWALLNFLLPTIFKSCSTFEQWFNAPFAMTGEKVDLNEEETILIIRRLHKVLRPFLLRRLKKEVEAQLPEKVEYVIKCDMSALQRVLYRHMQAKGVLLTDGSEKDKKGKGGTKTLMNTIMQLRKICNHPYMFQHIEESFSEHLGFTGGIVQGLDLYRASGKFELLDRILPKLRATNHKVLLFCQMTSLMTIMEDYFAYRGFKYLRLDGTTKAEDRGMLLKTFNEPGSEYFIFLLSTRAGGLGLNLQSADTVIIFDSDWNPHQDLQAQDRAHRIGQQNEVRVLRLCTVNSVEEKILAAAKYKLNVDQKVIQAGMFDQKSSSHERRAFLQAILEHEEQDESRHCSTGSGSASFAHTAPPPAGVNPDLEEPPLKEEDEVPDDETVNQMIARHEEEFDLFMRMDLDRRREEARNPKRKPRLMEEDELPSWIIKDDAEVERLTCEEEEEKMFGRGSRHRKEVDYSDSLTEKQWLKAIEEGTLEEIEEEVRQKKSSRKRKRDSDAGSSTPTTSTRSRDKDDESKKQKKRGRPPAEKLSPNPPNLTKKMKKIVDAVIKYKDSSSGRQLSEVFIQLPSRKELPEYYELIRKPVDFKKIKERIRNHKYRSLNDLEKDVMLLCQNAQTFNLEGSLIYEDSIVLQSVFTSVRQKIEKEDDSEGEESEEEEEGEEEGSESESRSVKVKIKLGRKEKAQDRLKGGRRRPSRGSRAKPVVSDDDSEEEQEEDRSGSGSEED
# T1 sequence (P51531 whole entry): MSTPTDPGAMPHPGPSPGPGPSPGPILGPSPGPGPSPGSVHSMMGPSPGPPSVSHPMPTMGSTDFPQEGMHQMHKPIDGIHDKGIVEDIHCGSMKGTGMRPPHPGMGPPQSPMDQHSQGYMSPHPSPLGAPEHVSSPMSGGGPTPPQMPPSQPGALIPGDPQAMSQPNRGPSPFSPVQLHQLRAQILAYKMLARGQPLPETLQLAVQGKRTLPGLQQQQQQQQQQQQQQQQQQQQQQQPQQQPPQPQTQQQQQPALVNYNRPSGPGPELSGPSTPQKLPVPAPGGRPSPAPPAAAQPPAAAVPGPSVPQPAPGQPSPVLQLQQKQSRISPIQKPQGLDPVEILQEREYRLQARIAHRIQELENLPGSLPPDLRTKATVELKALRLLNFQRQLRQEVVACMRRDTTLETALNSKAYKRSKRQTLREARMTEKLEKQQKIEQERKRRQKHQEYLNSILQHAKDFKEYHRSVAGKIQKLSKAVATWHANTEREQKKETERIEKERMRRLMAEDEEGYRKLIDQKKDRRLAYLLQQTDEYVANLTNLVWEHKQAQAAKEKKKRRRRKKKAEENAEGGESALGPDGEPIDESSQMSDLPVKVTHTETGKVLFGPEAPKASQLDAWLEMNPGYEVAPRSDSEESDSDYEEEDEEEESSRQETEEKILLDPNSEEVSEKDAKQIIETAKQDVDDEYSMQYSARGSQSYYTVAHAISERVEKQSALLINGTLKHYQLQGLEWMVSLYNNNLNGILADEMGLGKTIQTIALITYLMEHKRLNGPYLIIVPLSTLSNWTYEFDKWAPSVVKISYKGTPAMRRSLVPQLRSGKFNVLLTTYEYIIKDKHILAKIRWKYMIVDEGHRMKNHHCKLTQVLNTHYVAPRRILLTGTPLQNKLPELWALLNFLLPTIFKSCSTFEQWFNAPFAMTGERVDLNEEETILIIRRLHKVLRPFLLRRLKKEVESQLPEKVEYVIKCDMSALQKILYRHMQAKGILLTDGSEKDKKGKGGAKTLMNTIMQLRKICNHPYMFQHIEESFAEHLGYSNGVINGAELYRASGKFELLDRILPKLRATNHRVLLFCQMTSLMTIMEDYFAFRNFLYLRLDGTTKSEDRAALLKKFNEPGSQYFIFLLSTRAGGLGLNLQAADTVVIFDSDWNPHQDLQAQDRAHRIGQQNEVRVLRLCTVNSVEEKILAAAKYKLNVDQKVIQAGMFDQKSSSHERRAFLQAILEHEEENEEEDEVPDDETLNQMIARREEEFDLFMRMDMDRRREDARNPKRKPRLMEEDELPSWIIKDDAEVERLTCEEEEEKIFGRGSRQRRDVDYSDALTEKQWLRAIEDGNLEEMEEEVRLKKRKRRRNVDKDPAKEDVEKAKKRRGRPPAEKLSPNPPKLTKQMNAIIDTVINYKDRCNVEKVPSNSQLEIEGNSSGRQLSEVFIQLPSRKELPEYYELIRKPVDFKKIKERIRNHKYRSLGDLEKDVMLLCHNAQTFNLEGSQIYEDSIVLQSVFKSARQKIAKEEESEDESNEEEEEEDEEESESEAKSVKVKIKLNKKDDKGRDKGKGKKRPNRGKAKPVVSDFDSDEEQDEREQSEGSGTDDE
SMILES,IC50 (BRM) [nM],IC50 (BRG-1) [nM]
CC(C)(C)n1ccc(C(=O)NCC(=O)Nc2nc(-c3cccc(OC(F)F)n3)cs2)c1 [Compound 512],> 100,> 100
CO[C@H]1C[C@H](c2cccc(-c3csc(NC(=O)CNC(=O)c4ccn(C(C)(C)C)c4)n3)n2)C1 [Compound 514],> 100,> 100
N#CC1(n2ccc(C(=O)NCC(=O)Nc3nc(-c4cccc(OC(F)F)n4)cs3)c2)CC1 [Compound 522],> 100,> 100
C[C@H]1Cc2ccc(-c3csc(NC(=O)CNC(=O)c4ccn(S(C)(=O)=O)c4)n3)cc2O1 [Compound 527],> 10,> 10
N#CC1(n2ccc(C(=O)NCC(=O)Nc3nc(-c4cccc(OCC5(F)COC5)c4)cs3)c2)CC1 [Compound 528],> 100,> 100
CO[C@H]1C[C@H](c2cccc(-c3csc(NC(=O)CNC(=O)c4ccn(S(C)(=O)=O)c4)n3)c2)C1 [Compound 530],> 10,> 10
CO[C@H]1C[C@H](c2ccc(-c3csc(NC(=O)CNC(=O)c4ccn(S(C)(=O)=O)c4)n3)cc2)C1 [Compound 531],> 10,> 10
C[C@H](NC(=O)c1ccn(C2(C#N)CC2)c1)C(=O)Nc1nc(-c2ccc3ccn(C)c(=O)c3c2)cs1 [Compound 532],> 10,> 10
CS(=O)(=O)n1ccc(C(=O)NCC(=O)Nc2nc(-c3cccc(N4CCC(C(F)F)CC4)c3)cs2)c1 [Compound 543],> 10,> 10
COC[C@H](NC(=O)c1ccn(S(C)(=O)=O)c1)C(=O)Nc1nc(-c2ccc(F)c(OC3CC3)c2)cs1 [Compound 545],> 10,> 100
CC(C)(C)n1ccc(C(=O)NCC(=O)Nc2nc(-c3cccc(OC4CC4)c3F)cs2)c1 [Compound 547],> 10,> 100
CC1(n2ccc(C(=O)NCC(=O)Nc3nc(-c4cccc(OC5CC5)c4F)cs3)c2)COC1 [Compound 548],> 100,> 100
COC[C@H](NC(=O)c1ccn(C(C)(C)C)c1)C(=O)Nc1nc(-c2ccc3c(=O)n(C)ccc3c2)cs1 [Compound 551],> 10,> 10
CS(=O)(=O)n1ccc(C(=O)NCC(=O)Nc2nc(-c3cccc(N4CC[C@H](N)C(F)(F)C4)c3)cs2)c1 [Compound 552],> 10,> 10
N#CC1(n2ccc(C(=O)NCC(=O)Nc3nc(-c4cccc(OC(F)(F)F)c4)cs3)c2)CC1 [Compound 553],> 10,> 10
"N#CC1(n2ccc(C(=O)NCC(=O)Nc3nc(-c4cccc(OC5CC5)c4)cs3)c2)CC1 [Compound 554, 1-(1-cyanocyclopropyl)-N-[2-[[4-[3-(cyclopropoxy)phenyl]thiazol-2-yl]amino]-2-oxo-ethyl]pyrrole-3-carboxamide]",> 10,> 100
N#CC1(n2ccc(C(=O)NCC(=O)Nc3nc(-c4cc(F)cc(OC5CC5)c4)cs3)c2)CC1 [Compound 555],> 10,> 10
N#CC1(n2ccc(C(=O)NCC(=O)Nc3nc(-c4cccc(OC5CC5)c4F)cs3)c2)CC1 [Compound 556],> 10,> 100
"COC[C@H](NC(=O)c1ccn(S(C)(=O)=O)c1)C(=O)Nc1nc(-c2cccc(N3CCC(C(F)F)CC3)c2)cs1 [Compound 557, (S)—N-(1-((4-(3-(4-(difluoromethyl)piperidin-1-yl)phenyl)thiazol-2-yl)amino)-3-methoxy-1-oxopropan-2-yl)-1-(methylsulfonyl)-1H-pyrrole-3-carboxamide]",> 10,> 10
N#CC1(n2ccc(C(=O)NCC(=O)Nc3nc(-c4cccc(OC5CC5)n4)cs3)c2)CC1 [Compound 559],> 100,> 100
C[C@@H]1CN(c2cccc(-c3csc(NC(=O)[C@H](C)NC(=O)c4ccn(C5(C#N)CC5)c4)n3)n2)C[C@H](C)O1 [Compound 560],> 10,> 10

# Second part, the molecule after the results:
IC50 (BRM) [nM],IC50 (BRG-1) [nM],SMILES
> 10,> 100,CO[C@H]1C[C@@H](c2cccc(-c3csc(NC(=O)CNC(=O)c4ccn(C(C)(C)C)c4)n3)n2)C1 [Compound 515]
> 10,> 10,N#CC1(n2ccc(C(=O)NCC(=O)Nc3nc(-c4ccc(F)c(N5CCC5)c4)cs3)c2)CC1 [Compound 516]
> 10,> 10,C[C@@H]1Cc2ccc(-c3csc(NC(=O)CNC(=O)c4ccn(S(C)(=O)=O)c4)n3)cc2O1 [Compound 517]
< 10,< 10,CS(=O)(=O)n1ccc(C(=O)NCC(=O)Nc2nc(-c3cc(F)cc(N4CCC4)c3)cs2)c1 [Compound 518]
> 10,> 10,CC1(n2ccc(C(=O)NCC(=O)Nc3nc(-c4cc(F)cc(N5CCC5)c4)cs3)c2)COC1 [Compound 519]
> 10,> 100,"C[C@@H]1CN(c2cccc(-c3nc(NC(=O)CNC(=O)c4ccn(C(C)(C)C)c4)sc3F)n2)C[C@H](C)O1 [Compound 520, 1-(tert-butyl)-N-(2-((4-(6-(cis-2,6-dimethylmorpholino)pyridin-2-yl)-5-fluorothiazol-2-yl)amino)-2-oxoethyl)-1H-pyrrole-3-carboxamide]"
< 10,> 10,N#CC1(n2ccc(C(=O)NCC(=O)Nc3nc(-c4cc(F)cc(N5CCC5)c4)cs3)c2)CC1 [Compound 521]
> 10,> 10,"Cc1cncc(-c2cccc(-c3csc(NC(=O)CNC(=O)c4ccn(C5(C)COC5)c4)n3)n2)n1 [Compound 523, 1-(3-methyloxetan-3-yl)-N-[2-[[4-[6-(6-methylpyrazin-2-yl)-2-pyridyl]thiazol-2-yl]amino]-2-oxo-ethyl]pyrrole-3-carboxamide]"
< 10,> 10,N#CC1(n2ccc(C(=O)NCC(=O)Nc3nc(-c4cccc(N5CCC5)c4F)cs3)c2)CC1 [Compound 524]
> 10,> 10,CC1(n2ccc(C(=O)NCC(=O)Nc3nc(-c4cccc(N5CCC5)c4F)cs3)c2)COC1 [Compound 525]
> 10,> 10,COC[C@H](NC(=O)c1ccn(C2(C#N)CC2)c1)C(=O)Nc1nc(-c2ccc3ccn(C)c(=O)c3c2)cs1 [Compound 526]
< 10,> 10,Cc1cncc(-c2cccc(-c3csc(NC(=O)CNC(=O)c4ccn(C5(C)COC5)c4)n3)c2)n1 [Compound 529]
< 10,< 10,CS(=O)(=O)n1ccc(C(=O)NCC(=O)Nc2nc(-c3cc(F)c4c(c3)CCO4)cs2)c1 [Compound 544]
< 10,< 10,CN1CCOc2c(F)cc(-c3csc(NC(=O)CNC(=O)c4ccn(S(C)(=O)=O)c4)n3)cc21 [Compound 546]
< 10,> 10,COC[C@H](NC(=O)c1ccn(S(C)(=O)=O)c1)C(=O)Nc1nc(-c2ccc(F)c(N3CCC3)c2)cs1 [Compound 549]
< 10,< 10,CS(=O)(=O)n1ccc(C(=O)NCC(=O)Nc2nc(-c3cccc(N4CC[C@@H](N)C(F)(F)C4)c3)cs2)c1 [Compound 558]
< 10,< 10,COC[C@H](NC(=O)c1ccn(C(C)(C)C)c1)C(=O)Nc1nc(-c2ccc3c(F)cn(C)c(=O)c3c2)cs1 [Compound 561]
< 10,> 10,Cn1ccc(-c2cccc(-c3csc(NC(=O)CNC(=O)c4ccn(C(C)(C)C#N)c4)n3)c2)n1 [Compound 562]
